Measured values taken from ChEMBL document CHEMBL1201862, “PubChem BioAssay data set” (2004).
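Exposure lasted 48 hours, with cells grown in 96-well plates and compounds tested at five concentrations. GI50: concentration for 50% inhibition of growth.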 Active and inactive are the calls of the source. Rule as the data show it: active = GI50 up to about 1.1 µM and inactive = higher.

How the values were obtained:
Assay in all cases: NCI tumour cell line growth inhibition, 48 h
SF-268 = system: SF-268
EKVX = system: EKVX
NCI-H23 = system: NCI-H23
SF-295 = system: SF-295
SF-539 = system: SF-539
NCI-H226 = system: NCI-H226
MDA-N = system: MDA-N
HCT-15 = system: HCT-15
OVCAR-8 = system: OVCAR-8
NCI-H460 = system: NCI-H460
SNB-75 = system: SNB-75
U-251 = system: U-251
A498 = system: A498
KM12 = system: KM12
A549 = system: A549
NCI-H522 = system: NCI-H522
PC-3 = system: PC-3
HCC 2998 = system: HCC 2998
M14 = system: M14
Hs-578T = system: Hs-578T
OVCAR-5 = system: OVCAR-5
LOX IMVI = system: LOX IMVI
BT-549 = system: BT-549
T47D = system: T47D
CCRF-CEM = system: CCRF-CEM
UACC-257 = system: UACC-257
RXF 393 = system: RXF 393
COLO 205 = system: COLO 205
RPMI-8226 = system: RPMI-8226
SK-MEL-2 = system: SK-MEL-2
TK-10 = system: TK-10
MDA-MB-231 = system: MDA-MB-231
OVCAR-3 = system: OVCAR-3
CAKI-1 = system: CAKI-1
NCI/ADR-RES = system: NCI/ADR-RES
Malme-3M = system: Malme-3M
MCF7 = system: MCF7
SW-620 = system: SW-620
ACHN = system: ACHN
HT-29 = system: HT-29
DU-145 = system: DU-145
HCT-116 = system: HCT-116
K562 = system: K562
OVCAR-4 = system: OVCAR-4
SK-MEL-5 = system: SK-MEL-5
SN12C = system: SN12C
HOP-92 = system: HOP-92
MDA-MB-435 = system: MDA-MB-435
UO-31 = system: UO-31
IGROV-1 = system: IGROV-1
SK-OV-3 = system: SK-OV-3
UACC-62 = system: UACC-62
SK-MEL-28 = system: SK-MEL-28
HL-60 = system: HL-60
786-0 = system: 786-0
MOLT-4 = system: MOLT-4
HOP-62 = system: HOP-62
SNB-19 = system: SNB-19

With `NC1=CN(Cc2ccccc2)C2=N/C(=C\c3ccccc3O)C(=O)N12` the GI50 (SF-268) was > 100 µM (inactive), the GI50 (EKVX) was 52.1 µM (inactive) and the GI50 (NCI-H23) was > 100 µM (inactive). The GI50 (SF-295) was > 100 µM (inactive), the GI50 (SF-539) was > 100 µM (inactive) and the GI50 (NCI-H226) was > 100 µM (inactive). The GI50 (MDA-N) was > 100 µM (inactive), the GI50 (HCT-15) was over 100 µM and the GI50 (OVCAR-8) was > 100 µM (inactive). For the same molecule, the GI50 (NCI-H460) was > 100 µM (inactive), the GI50 (SNB-75) was > 100 µM (inactive) and the GI50 (U-251) was 71.6 µM (inactive). For the same molecule, the GI50 (A498) was > 100 µM (inactive), the GI50 (KM12) was > 100 µM (inactive) and the GI50 (A549) was > 100 µM (inactive). For the same molecule, the GI50 (NCI-H522) was > 100 µM (inactive), the GI50 (PC-3) was > 100 µM (inactive) and the GI50 (HCC 2998) was > 100 µM (inactive). For the same molecule, the GI50 (M14) was > 100 µM (inactive), the GI50 (Hs-578T) was > 100 µM (inactive) and the GI50 (OVCAR-5) was > 100 µM (inactive). For the same molecule, the GI50 (LOX IMVI) was > 100 µM (inactive), the GI50 (BT-549) was > 100 µM (inactive) and the GI50 (T47D) was 94.4 µM (inactive). For the same molecule, the GI50 (CCRF-CEM) was 81.8 µM (inactive), the GI50 (UACC-257) was > 100 µM (inactive) and the GI50 (RXF 393) was > 100 µM (inactive). The GI50 (COLO 205) was > 100 µM (inactive), the GI50 (RPMI-8226) was 75.7 µM (inactive) and the GI50 (SK-MEL-2) was > 100 µM (inactive). The GI50 (TK-10) was > 100 µM (inactive), the GI50 (MDA-MB-231) was > 100 µM (inactive) and the GI50 (OVCAR-3) was > 100 µM (inactive). The GI50 (CAKI-1) was > 100 µM (inactive), the GI50 (NCI/ADR-RES) was > 100 µM (inactive) and the GI50 (Malme-3M) was > 100 µM (inactive). The GI50 (MCF7) was > 100 µM (inactive), the GI50 (SW-620) was > 100 µM (inactive) and the GI50 (ACHN) was > 100 µM (inactive). For the same molecule, the GI50 (HT-29) was > 100 µM (inactive), the GI50 (DU-145) was > 100 µM (inactive) and the GI50 (HCT-116) was > 100 µM (inactive). The GI50 (K562) was 73.3 µM (inactive), the GI50 (OVCAR-4) was > 100 µM (inactive) and the GI50 (SK-MEL-5) was 90.8 µM (inactive). The GI50 (SN12C) was > 100 µM (inactive), the GI50 (HOP-92) was > 100 µM (inactive) and the GI50 (MDA-MB-435) was > 100 µM (inactive). The GI50 (UO-31) was 70.3 µM (inactive), the GI50 (IGROV-1) was > 100 µM (inactive) and the GI50 (SK-OV-3) was > 100 µM (inactive). For the same molecule, the GI50 (UACC-62) was > 100 µM (inactive), the GI50 (SK-MEL-28) was > 100 µM (inactive) and the GI50 (HL-60) was > 100 µM (inactive). For the same molecule, the GI50 (786-0) was > 100 µM (inactive), the GI50 (MOLT-4) was 96.4 µM (inactive) and the GI50 (HOP-62) was > 100 µM (inactive). For the same molecule, the GI50 (SNB-19) was > 100 µM (inactive).
For `CC1(C)N=C(c2ccccc2)SC12S[C@@H]1CCCC[C@H]1S2`, the GI50 (SF-268) was > 100 µM (inactive), the GI50 (EKVX) was > 100 µM (inactive) and the GI50 (NCI-H23) was 14.7 µM (inactive). The GI50 (SF-295) was > 100 µM (inactive), the GI50 (SF-539) was > 100 µM (inactive) and the GI50 (NCI-H226) was > 100 µM (inactive). The GI50 (MDA-N) was 20.7 µM (inactive), the GI50 (HCT-15) was over 100 µM and the GI50 (OVCAR-8) was > 100 µM (inactive). The GI50 (NCI-H460) was > 100 µM (inactive), the GI50 (SNB-75) was > 100 µM (inactive) and the GI50 (U-251) was > 100 µM (inactive). The GI50 (A498) was 17.9 µM (inactive), the GI50 (KM12) was > 100 µM (inactive) and the GI50 (A549) was > 100 µM (inactive). The GI50 (NCI-H522) was > 100 µM (inactive), the GI50 (PC-3) was > 100 µM (inactive) and the GI50 (M14) was > 100 µM (inactive). For the same molecule, the GI50 (Hs-578T) was 4.57 µM (inactive), the GI50 (OVCAR-5) was > 100 µM (inactive) and the GI50 (LOX IMVI) was > 100 µM (inactive). For the same molecule, the GI50 (BT-549) was > 100 µM (inactive), the GI50 (T47D) was 35.8 µM (inactive) and the GI50 (CCRF-CEM) was > 100 µM (inactive). For the same molecule, the GI50 (UACC-257) was 41.5 µM (inactive), the GI50 (RXF 393) was > 100 µM (inactive) and the GI50 (COLO 205) was > 100 µM (inactive). For the same molecule, the GI50 (RPMI-8226) was 32.2 µM (inactive), the GI50 (SK-MEL-2) was > 100 µM (inactive) and the GI50 (TK-10) was > 100 µM (inactive). The GI50 (MDA-MB-231) was > 100 µM (inactive), the GI50 (OVCAR-3) was > 100 µM (inactive) and the GI50 (CAKI-1) was > 100 µM (inactive). For the same molecule, the GI50 (NCI/ADR-RES) was > 100 µM (inactive), the GI50 (Malme-3M) was 56.2 µM (inactive) and the GI50 (MCF7) was 64.4 µM (inactive). The GI50 (SW-620) was 29.4 µM (inactive), the GI50 (ACHN) was > 100 µM (inactive) and the GI50 (HT-29) was 94.6 µM (inactive). For the same molecule, the GI50 (DU-145) was > 100 µM (inactive), the GI50 (HCT-116) was > 100 µM (inactive) and the GI50 (K562) was > 100 µM (inactive). For the same molecule, the GI50 (OVCAR-4) was > 100 µM (inactive), the GI50 (SK-MEL-5) was 17.4 µM (inactive) and the GI50 (SN12C) was > 100 µM (inactive). The GI50 (HOP-92) was > 100 µM (inactive), the GI50 (MDA-MB-435) was > 100 µM (inactive) and the GI50 (UO-31) was > 100 µM (inactive). For the same molecule, the GI50 (IGROV-1) was > 100 µM (inactive), the GI50 (SK-OV-3) was > 100 µM (inactive) and the GI50 (UACC-62) was > 100 µM (inactive). For the same molecule, the GI50 (SK-MEL-28) was > 100 µM (inactive), the GI50 (HL-60) was > 100 µM (inactive) and the GI50 (MOLT-4) was 63.8 µM (inactive). For the same molecule, the GI50 (HOP-62) was > 100 µM (inactive) and the GI50 (SNB-19) was 13.2 µM (inactive).
